# ± gives the standard deviation of the averaged measurements.
# Legend:
# Test in all cases: level (log10 ratio to DMSO vehicle control); higher = higher biomarker level / cell amount than vehicle control
# [1] = compound: FC(F)(F)COC(OCC(F)(F)F)OCC(F)(F)F [tris(Trifluoroethoxy)methane]; details: in DMSO
# Experimental: (§1)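 BioMAP Diversity Plus panel of 12 human primary cell co-culture systems (3C, 4H, LPS, SAg, BT, BF4T, BE3C, CASM3C, HDF3CGF, KF3CT, MyoF, Mphg). Compounds were added 1 h before stimulation and left for 24 h (MyoF 48 h; BT 72 h for soluble read-outs or 6 d for IgG). Biomarkers were read by ELISA, cytotoxicity by SRB, PBMC viability and proliferation by Alamar Blue. Each well value was divided by the mean of 8 DMSO control wells on the same plate and log10 transformed; duplicate blinded samples were tested at 4 concentrations.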
# [2] = compound: OCCCCC(F)(F)C(F)(F)C(F)(F)C(F)(F)F [4:4 Fluorotelomer alcohol]; details: in DMSO
# Experimental: as §1
# [3] = compound: FC(F)(I)C(F)(F)C(F)(F)C(F)(F)C(F)(F)C(F)(F)I [1,6-Diiodoperfluorohexane]; details: 6700 nM; in DMSO
# Experimental: as §1
# [4] = compound: OCC(F)(F)C(F)(F)C(F)(F)C(F)(F)C(F)(F)C(F)(F)F [6:1 Fluorotelomer alcohol]; details: in DMSO
# Experimental: as §1
# [5] = compound: OCC(F)(F)C(F)(F)C(F)(F)C(F)(F)C(F)(F)C(F)(F)C(F)(F)C(F)(F)C(F)(F)C(F)(F)C(F)(F)F [11:1 Fluorotelomer alcohol]; details: in DMSO
# Experimental: as §1
# [6] = compound: C=CC(=O)OCCC(F)(F)C(F)(F)C(F)(F)C(F)(F)C(F)(F)C(F)(F)C(F)(F)C(F)(F)F [8:2 Fluorotelomer acrylate]; details: in DMSO
# Experimental: as §1
# [7] = compound: OCCCC(F)(F)C(F)(F)C(F)(F)C(F)(F)C(F)(F)C(F)(F)C(F)(F)C(F)(F)F [3-(Perfluorooctyl)propanol]; details: 6700 nM; in DMSO
# Experimental: as §1
# [8] = compound: OCCC(F)(F)C(F)(F)C(F)(F)C(F)(F)C(F)(F)C(F)(F)C(F)(F)C(F)(F)F [8:2 Fluorotelomer alcohol]; details: 6700 nM; in DMSO
# Experimental: as §1
Test System,level (log10) ([1]; 6700 nM),level (log10) ([1]; 20000 nM),level (log10) ([1]; 60000 nM),level (log10) ([2]; 6700 nM),level (log10) ([2]; 20000 nM),level (log10) ([2]; 60000 nM),level (log10) [3],level (log10) ([4]; 6700 nM),level (log10) ([4]; 20000 nM),level (log10) ([4]; 60000 nM),level (log10) ([5]; 1100 nM),level (log10) ([5]; 3300 nM),level (log10) ([5]; 10000 nM),level (log10) ([6]; 6700 nM),level (log10) ([6]; 20000 nM),level (log10) ([6]; 60000 nM),level (log10) [7],level (log10) [8]
3C:CD87/uPAR,-0.0515 ± 0.063,-0.032 ± 0.027,-0.018 ± 0.04,-0.018 ± 0.057,-0.0155 ± 0.005,0.012 ± 0.0014,-0.022,-0.021,-0.01 ± 0.042,0 ± 0.0085,-0.024 ± 0.023,-0.013 ± 0.024,-0.003 ± 0.011,0.007 ± 0.027,-0.0065 ± 0.025,-0.0025 ± 0.036,-0.03 ± 0.04,0.008 ± 0.018
3C:CXCL8/IL-8,-0.007 ± 0.016,-0.0085 ± 0.005,0.003 ± 0.013,-0.029 ± 0.0085,-0.031 ± 0.0057,0.0005 ± 0.0078,-0.008,-0.0095 ± 0.013,0.0145 ± 0.011,0.055 ± 0.057,-0.022 ± 0.027,-0.0245 ± 0.046,0.019 ± 0.082,0.009 ± 0.0057,0.012 ± 0.035,0.0555 ± 0.049,-0.008 ± 0.013,-0.003 ± 0.034
3C:CXCL9/MIG,-0.01 ± 0.018,-0.008 ± 0.0057,-0.0115 ± 0.0035,0.0075 ± 0.0035,-0.01 ± 0.0014,0.007 ± 0.0028,-0.002,0.0065 ± 0.0035,0.0065 ± 0.0035,0.019,-0.001 ± 0.014,0.0045 ± 0.0064,0.0145 ± 0.016,-0.0135 ± 0.011,-0.005 ± 0.0042,0.01 ± 0.018,-0.0075 ± 0.0092,-0.015 ± 0.0071
3C:HLA-DR,0.014 ± 0.013,0.0065 ± 0.012,0.0205 ± 0.0035,-0.002 ± 0.042,-0.0065 ± 0.026,0.006 ± 0.033,-0.005,0.004 ± 0.011,-0.003 ± 0.0028,-0.0095 ± 0.0078,-0.019 ± 0.0042,-0.034 ± 0.011,-0.04 ± 0.016,0.009 ± 0.0071,0.0055 ± 0.013,0.0175 ± 0.029,-0.03 ± 0.0028,-0.0245 ± 0.018
3C:Proliferation,-0.013 ± 0.061,-0.001 ± 0.037,0.0035 ± 0.03,-0.018 ± 0.031,0.0115 ± 0.011,-0.009 ± 0.054,-0.102,-0.0285 ± 0.0092,-0.0325 ± 0.0064,-0.685 ± 0.77,-0.189 ± 0.012,-0.436 ± 0.042,-0.338 ± 0.051,-0.035 ± 0.037,-0.009 ± 0.048,-0.0155 ± 0.005,-0.385 ± 0.027,-0.0465 ± 0.005
3C:SRB,-0.02,-0.0035 ± 0.00071,-0.006 ± 0.02,-0.0075 ± 0.025,0.004 ± 0.025,0.0095 ± 0.032,0.03,-0.0045 ± 0.0092,-0.0025 ± 0.012,-0.21 ± 0.3,-0.043 ± 0.0014,-0.115 ± 0.021,-0.116 ± 0.014,-0.001 ± 0.03,0.008 ± 0.018,0.0075 ± 0.005,-0.0195 ± 0.018,-0.014 ± 0.0099
4H:CCL2/MCP-1,-0.017 ± 0.017,-0.017 ± 0.018,0.031 ± 0.054,0.0135 ± 0.011,-0.016 ± 0.023,0.023 ± 0.055,-0.03,-0.005 ± 0.0071,-0.0135 ± 0.0035,0.002 ± 0.042,0.0335 ± 0.033,0.0495 ± 0.00071,0.0835 ± 0.023,-0.025 ± 0.018,-0.016 ± 0.023,0.012 ± 0.051,0.0195 ± 0.0078,-0.012 ± 0.014
4H:CCL26/Eotaxin-3,0.018 ± 0.047,0.0235 ± 0.043,0.0415 ± 0.0078,-0.017 ± 0.021,-0.0345 ± 0.0021,-0.025 ± 0.011,-0.037,0.01 ± 0.0085,0.012 ± 0.018,-0.003 ± 0.025,0.0025 ± 0.0035,-0.0055 ± 0.0092,-0.0085 ± 0.0078,0.0235 ± 0.0021,-0.012 ± 0.018,0.01 ± 0.048,-0.009 ± 0.0042,0.017 ± 0.054
4H:CD62P/P-selectin,-0.0215 ± 0.064,0.011 ± 0.088,-0.0135 ± 0.053,0.023 ± 0.0028,0.019 ± 0.013,0.0115 ± 0.005,-0.001,-0.023 ± 0.038,-0.0435 ± 0.029,-0.182 ± 0.079,-0.111 ± 0.042,-0.095 ± 0.079,-0.139 ± 0.13,-0.018 ± 0.0028,-0.092 ± 0.0028,-0.047 ± 0.064,-0.0465 ± 0.022,-0.0615 ± 0.0064
4H:CD87/uPAR,0.0405 ± 0.07,0.0305 ± 0.052,0.0185 ± 0.064,-0.0385 ± 0.029,-0.044 ± 0.021,-0.0195 ± 0.013,-0.009,-0.0195 ± 0.018,0.029 ± 0.011,-0.175 ± 0.36,-0.0285 ± 0.037,-0.0415 ± 0.028,0 ± 0.059,-0.045 ± 0.051,-0.03 ± 0.011,-0.064 ± 0.069,-0.0615 ± 0.025,-0.069 ± 0.025
4H:CD106/VCAM-1,-0.0145 ± 0.0035,-0.0025 ± 0.0078,-0.009 ± 0.0071,0 ± 0.0057,-0.01 ± 0.0028,0.005 ± 0.0028,-0.052,0.0035 ± 0.033,-0.0045 ± 0.049,0.0195 ± 0.0078,0.0285 ± 0.022,0.0115 ± 0.057,0.024 ± 0.038,-0.0045 ± 0.035,-0.023 ± 0.051,-0.0255 ± 0.026,0.0065 ± 0.021,-0.008 ± 0.013
4H:SRB,-0.0055 ± 0.0021,-0.004 ± 0.0042,-0.011 ± 0.017,-0.003 ± 0.013,0 ± 0.018,-0.001 ± 0.023,0.009,-0.0125 ± 0.005,-0.006 ± 0.0085,-0.002 ± 0.014,-0.0105 ± 0.0092,-0.0195 ± 0.0035,-0.0005 ± 0.025,-0.0045 ± 0.019,-0.0035 ± 0.005,0.01,-0.0015 ± 0.00071,-0.014 ± 0.0042
4H:VEGFR2,-0.0045 ± 0.023,0.006 ± 0.017,0.006 ± 0.021,-0.0535 ± 0.036,-0.0665 ± 0.005,-0.0205 ± 0.047,-0.002,0.0035 ± 0.042,-0.005 ± 0.013,0.012 ± 0.023,-0.027 ± 0.023,-0.0135 ± 0.033,-0.008 ± 0.048,0.019 ± 0.024,0.0175 ± 0.026,0.016 ± 0.04,-0.013 ± 0.0085,0.0185 ± 0.0064
BE3C:CD54/ICAM-1,0.016 ± 0.027,0.006 ± 0.0099,0.0075 ± 0.0092,0.0085 ± 0.015,-0.0025 ± 0.023,-0.0045 ± 0.0064,0.001,0.0055 ± 0.019,-0.013 ± 0.016,0.0065 ± 0.0021,-0.0245 ± 0.00071,-0.054 ± 0.0099,-0.025 ± 0.0028,-0.016,0 ± 0.0014,0.019 ± 0.04,0.023 ± 0.0071,0.001 ± 0.0099
BE3C:CD87/uPAR,-0.01 ± 0.0028,0.0475 ± 0.047,-0.0075 ± 0.023,0.0075 ± 0.03,-0.025 ± 0.016,0.0065 ± 0.033,0.059,0.007 ± 0.017,-0.0075 ± 0.0078,0.0105 ± 0.035,-0.035 ± 0.0014,-0.0795 ± 0.012,-0.0385 ± 0.026,0.03 ± 0.041,0.027 ± 0.035,0.0595 ± 0.049,0.02 ± 0.047,-0.023 ± 0.041
BE3C:CXCL8/IL-8,0.018 ± 0.051,0.0155 ± 0.04,0.0505 ± 0.013,-0.013 ± 0.016,-0.0155 ± 0.0021,0.029 ± 0.04,0.011,0.004 ± 0.017,-0.0125 ± 0.042,-0.0075 ± 0.0064,-0.086 ± 0.011,-0.158 ± 0.055,-0.0975 ± 0.042,-0.019 ± 0.027,-0.013 ± 0.033,0.043 ± 0.021,-0.046 ± 0.011,-0.054 ± 0.0042
